Biological target: T1, HIV-1 RT (Human immunodeficiency virus type 1 group M subtype B, UniProt P03367)
T1 construct: Reverse transcriptase enzyme from the LAV strain of Human Immunodeficiency Virus (HIV-1) (1) was isolated; made in house; host or cells: E. coli JM109, clone pBRTprtl+ in vector pIBI21 (lac promoter, IPTG induction)
Assay: Reverse Transcriptase (RT) Assay: inhibition of RNA-dependent DNA polymerase activity
Assay type: biochemical
Details: @ 0.5µM
Description: Utilizing the Reverse Transcriptase (RT) Assay described below, compounds can be tested for their ability to inhibit the RNA-dependent DNA polymerase activity of HIV-1 RT.
Among the enzymes for which Human Immunodeficiency Virus (HIV-1) encodes is a reverse transcriptase (1), so-named because it transcribes a DNA copy from an RNA template. This activity can be quantitatively measured in a cell-free enzyme assay, which has been previously described (2), and is based upon the observation that reverse transcriptase is able to use a synthetic template [poly r(C) primed with oligo d(G)] to transcribe a radio-labelled, acid-precipitable DNA strand utilizing ^3H-dGTP as a substrate.
Reverse transcriptase enzyme from the LAV strain of Human Immunodeficiency Virus (HIV-1) (1) was isolated from the bacterial strain JM109 (3) expressing the DNA clone pBRTprtl+ (2) which is under the control of the lac promotor in the expression vector pIBI21 (4). An overnight culture grown in 2XYT medium (37°C, 225 rpm) (5) supplemented with 100 µg/ml ampicillin for positive selection is inoculated at a 1:40 dilution into M9 medium supplemented with 10µg/ml thiamine, 0.5% casamino acids, and 50 µg/ml ampicillin (5). The culture is incubated (37°C, 225 rpm) until it reaches an OD540 of 0.3-0.4. At that time the repressor inhibitor IPTG (isopropyl β-D-thiogalactopyranoside) is added to 0.5mM, and the mixture is incubated for 2 additional hours. Bacteria are pelleted, resuspended in a 50mM Tris, 0.6mM EDTA, 0.375M NaCl buffer and digested by the addition of lysozyme (1mg/ml) for 30 minutes on ice. The cells are lysed by the addition of 0.2% NP-40 and brought to 1M NaCl.
After removal of the insoluble debris by centrifugation, the protein is precipitated by the addition of 3 volumes of saturated aqueous ammonium sulfate. The enzyme is pelleted, resuspended in RT buffer (50mM Tris pH 7.5, 1mM EDTA, 5mM DTT, 0.1% NP-40, 0.1M NaCl, and 50% glycerol), and stored at -70°C for further use.
The 2X concentrated stock reaction mixture is aliquoted and stored at -20°C. […] This enzyme assay has been adapted to a 96 well microtiter plate system, and has been previously described (6). Tris buffer (50 mM, pH 7.4), vehicle (solvent diluted to match the compound dilution), or compounds in vehicle are dispensed into 96-well microtiter plates (10µl/well; 3 wells/ compound). The HIV-1 RT enzyme is thawed, diluted in 50mM Tris pH 7.4 so that fifteen µl of diluted enzyme contain 0.001 Unit (one unit is that amount of enzyme to transform 1 micromole of substrate per minute at 25°C), and fifteen µl are dispensed per well. Twenty µl of 0.12-0.5M EDTA are added to the first three wells of the microtiter plate. EDTA chelates the Mg^++ present and prevents reverse transcription. This group serves as background polymerization which is subtracted from all other groups. Twenty-five µl of the 2X reaction mixture are added to all wells and the assay is allowed to incubate at room temperature for 60 minutes. The assay is terminated by precipitating the DNA in each well with 50µl of 10% trichloracetic acid (TCA) (10% w/v) in sodium pyrophosphate (1% w/v). The microtiter plate is incubated for 15 minutes at 4°C and the precipitate is fixed onto #30 glass fiber paper (Schleicher & Schuell) using a Skatron semi-automatic harvester. The filters are then washed with additional TCA (5%) containing sodium pyrophosphate (1%), rinsed with aqueous ethanol (70%), dried, and transferred to scintillation vials (6). Each vial receives 2 mls of scintillation cocktail and is counted in a Beckman beta counter.
The calculation for percent inhibition is as follows: %inhibition =(CPM Mean Test Value - CPM Mean Control Value X100)/(CPM Mean Control Value) [formula]

inhibition at 0.5 µM [%]	SMILES
30	CC(=O)N1C(=O)c2cccnc2N(C2CC2)c2nccc(C)c21 [Example 54]

Same assay, conditions: @ 1µM (footnote *); read-out: RT Assay % inhibition

inhibition at 1 µM [%]	SMILES
36	Cc1ccnc2c1N(O)C(=O)c1cccnc1N2C1CC1 [Example 4, 11-Cyclopropyl-5,11-dihydro-5-hydroxy-4-methyl-6H-dipyrido[3,2-b:2',3'-e][1,4]diazepin-6-one]
40	CCN1c2ncccc2C(=O)N(C)c2cc(Cl)c([N+](=O)[O-])nc21 [Example 8]
90	CCN1c2ncccc2C(=O)N(C)c2ccc(N(C)C)nc21 [Example 60]
86	CCN1c2ncccc2C(=O)N(C)c2ccc(N3CC=CC3)nc21 [Example 26]
75	CCNc1ccc2c(n1)N(CC)c1ncccc1C(=O)N2C [Example 61]
2	CCN1c2ncccc2NC(=O)c2c(C)cc(C)nc21 [Example 27]
75	CCc1ccnc2c1NC(=O)c1cccnc1N2C1CCC1 [Example 9]
35	O=C1Nc2cccnc2N(C2CCCCC2)c2ncccc21 [Example 45]
72	C=COC(=O)N1C(=O)c2cccnc2N(C2CC2)c2nccc(C)c21 [Example 52]
94	CCN1c2ncccc2C(=O)N(C)c2c(C)cc(N3CCCC3)nc21 [Example 25]
70	C=CCNc1ccc2c(n1)N(CC)c1ncccc1C(=O)N2C [Example 37]
91	CCN1c2ncccc2C(=O)Nc2c(C)cc(Cl)nc21 [Example 12]
20	CCN1c2ncc(N)cc2C(=O)N(C)c2cc(N)cnc21 [Example 51]
32	Cc1ccnc2c1NC(=O)c1c(O)ccnc1N2C1CC1 [Example 41]
83	O=C1Nc2c(Cl)ccnc2N(C2CC2)c2ncccc21 [Example 33]
63	CCN1c2ncc(N=[N+]=[N-])cc2C(=O)N(C)c2cccnc21 [Example 16]
90	Cc1cc(Cl)nc2c1NC(=O)c1cccnc1N2C1CC1 [Example 13]
8	CN(C)CCN1C(=O)c2cccnc2N(C2CC2)c2ncccc21 [Example 59]

inhibition at 1 µM [%]	SMILES
90	CN1C(=O)c2cccnc2N(C2CCCCC2)c2ncccc21 [Example 44]
44	C=CCN1C(=O)c2cccnc2N(C2CC2)c2nccc(C)c21 [Example 50]
64	CCN1c2ncccc2C(=O)N(C)c2ccc(N(C)Cc3ccc(OC)cc3)nc21 [Example 36]
52	CCN1c2ncccc2C(=O)N(C)c2cc(Cl)c(N)nc21 [Example 49]
76	CCc1ccnc2c1NC(=O)c1cccnc1N2C1CC1 [Example 11]
35	O=C1Nc2cccnc2N(C2CCCC2)c2ncccc21 [Example 24]
98	CCN1c2nc(N(C)C)ccc2NC(=O)c2cccnc21 [Example 63]
66	CCN1c2ncccc2C(=O)N(C)c2ccc(N3CCCCC3)nc21 [Example 57]
34	CN1C(=O)c2cccnc2N(C2CCCC2)c2ncccc21 [Example 28]
17	CON1C(=O)c2cccnc2N(C2CC2)c2nccc(C)c21 [Example 53]
68	CCN1c2ncccc2C(=O)N(C)c2ccc(N3CCOCC3)nc21 [Example 56]
82	CCN1c2ncc(N)cc2C(=O)N(C)c2cccnc21 [Example 65, 8-Amino-5,11-dihydro-11-ethyl-5-methyl-6H-dipyrido[3,2-b:2',3'-e] [1,4]diazepin-6-one hemihydrate]
0	CCN1c2ncc([N+](=O)[O-])cc2C(=O)N(C)c2cccnc21 [Example 62]
34	O=C1Nc2c(CO)ccnc2N(C2CC2)c2ncccc21 [Example 38]
50	Cc1ccnc2c1N(C)C(=O)c1cccnc1N2C1CC1 [Example 19]
61	CCN1c2ncccc2C(=O)N(C)c2ccc(NCc3ccc(OC)cc3)nc21 [Example 55]
94	CCN1c2ncccc2C(=O)Nc2c1nc(N1CCCC1)c(Cl)c2C [Example 64]

Same assay, conditions: @ 1.25µM (footnote +)

inhibition at 1.25 µM [%]	SMILES
37	N#Cc1ccnc2c1NC(=O)c1cccnc1N2C1CC1 [Example 58]

Same assay, conditions: read-out: RT Assay % inhibition

SMILES	inhibition at 1 µM [%]
Cc1ccnc2c1NC(=S)c1cccnc1N2C1CC1 [Example 42, 5,11 Dihydro-6H-11-cyclopropyl-4-methyl-dipyrido[3,2-b:2',3'-e][1,4]diazepin-6-thione]	90
CCN1c2ncc([N+](=O)[O-])cc2C(=O)N(C)c2cc(Cl)c([N+](=O)[O-])nc21 [Example 40]	0
CCN1c2ncc([N+](=O)[O-])cc2C(=O)N(C)c2cc([N+](=O)[O-])cnc21 [Example 39]	0
Cc1cc(C)c2c(n1)N(C1CC1)c1ncccc1C(=O)N2 [Example 10]	85
CCN1c2ncccc2C(=NOC)Nc2c(C)cc(C)nc21 [Example 67, 5,11-Dihydro-11-ethyl-6-methoxyimino-2,4-dimethyl-6H-dipyrido[3,2-b:2',3'-e][1,4]diazepine]	88

Same assay, conditions: read-out: RT Assay % inhibition @ 10 µg/ml

inhibition at 10 µg/mL [%]	SMILES
0	COCN1C(=O)c2cccnc2N(COC)c2nccc(C)c21 [Example 29]
100	CCN1c2ncccc2C(=O)Nc2c(C(F)(F)F)cc(Cl)nc21 [Example 30]
44	CN1C(=O)c2cccnc2N(C#N)c2ncccc21 [Example 43]
100	CN1C(=O)c2cccnc2N(C2CCC2)c2ncccc21 [Example 32]
100	CCN1c2ncccc2C(=O)N(C)c2cc(C)c(C)nc21 [Example 22]
88	CC[C@H](C)N1c2ncccc2NC(=O)c2cccnc21 [Example 23]
87	CN1C(=O)c2cccnc2N(C(C)(C)C)c2ncccc21 [Example 15]
99	CC(C)N1c2ncccc2NC(=O)c2cccnc21 [Example 17]
85	CC[C@@H](C)N1c2ncccc2NC(=O)c2cccnc21 [Example 21]
99	O=C1Nc2cccnc2N(C2CC2)c2ncccc21 [Example 18]
99	O=C1Nc2cccnc2N(C2CCC2)c2ncccc21 [Example 31]
91	COc1ccnc2c1NC(=O)c1cccnc1N2C1CC1 [Example 35]
93	CN1C(=O)c2cccnc2N(CC2CC2)c2ncccc21 [Example 20]
100	CCN1c2ncccc2C(=O)Nc2c(C(F)(F)F)cc(C)nc21 [Example 1, 5,11-Dihydro-11-ethyl-2-methyl-4-trifluoromethyl-6H-dipyrido-[3,2-b:2',3'-e][1,4]diazepin-6-one]
77	CN1C(=O)c2cccnc2N(S(C)(=O)=O)c2ncccc21 [Example 48]
44	CCN1c2ncccc2NC(=O)c2c1nc(C)c(Cl)c2C [Example 46]

SMILES	inhibition at 10 µg/mL [%]
CCN1c2ncccc2C(=NC#N)Nc2c(C)cc(C)nc21 [Example 66, 6-Cyanoimino-5,11-dihydro-11-ethyl-2,4-dimethyl-6H-dipyrido[3,2-b:2',3'-e][1,4]diazepine]	100
